Measurements: PMC8166143, “Ecotoxicity evaluation of polymeric nanoparticles loaded with ascorbic acid for fish nutrition in aquaculture” (Journal of Nanobiotechnology, 2021)
≈ marks a conversion by molar mass, not a printed value.

Key:
[1] = AA oxidation under aquarium conditions; assay type: physicochemical
Procedure: (§1) The oxidation profiles of AA, alone and encapsulated in the CS and PCL nanoparticles, were evaluated using the method described previously. A stock solution of AA was prepared by dissolving 50 mg of AA in 250 mL of stabilizing solution (EDTA). The absorbance of this solution was measured at 265 nm, with the stabilizing solution used as the background. Separately, a solution of Oxone (potassium peroxymonosulfate, Sigma-Aldrich) was prepared in 50 mL of EDTA solution. An aliquot of AA solution was mixed with 3 mL of Oxone solution and completed to 25 mL with the stabilizing solution, resulting in a solution with 10 μg mL^−1 of AA. The same procedure was performed for the CS and PCL nanoparticles loaded with AA. The absorbance value of the solution containing only AA, minus the absorbance value of the solution containing AA and Oxone, was proportional to the concentration of AA present in the sample. For oxidation studies under aquarium conditions, 9 aquaria were used (3 per treatment), each containing a final volume of 3 L and fitted with an aeration pump. The parameters set for the experiment were 28 °C, pH 7 ± 0.5, and 25 µg mL^−1 of AA (the concentration used in the in vivo assays). At predetermined times, 1 mL aliquots were collected, and the amount of AA was determined using HPLC. The results were presented as % viable ascorbic acid. The assays were performed in triplicate (n = 3).

zebrafish larvae = assay: Zebrafish motor activity (distance traveled, speed); assay type: in vivo, Danio rerio
Procedure: After 96 h, the larvae were distributed individually in 96-well plates, with each well containing 100 µL of embryo medium and 100 µL of test solution (total volume = 200 µL). The behaviors of the larvae were recorded individually for 10 min (at 28 °C) and were analyzed using EthovisionXT software (Noldus). The parameters considered were speed (mm/s) and distance covered.

[2] = tested on: zebrafish embryos and larvae; details: after 96 h of exposure
Procedure: The embryos were kept individually in 24-well polystyrene plates (n = 24 organisms per group), with addition of 2 mL of test solution to each well. The temperature was maintained at 26 ± 0.2 °C and a light/dark photoperiod of 14/10 h was provided. Determinations were made of mortality and morphological abnormalities including changes in heartbeat, presence of coagulation, undetected tail, change in head formation, disintegration of larvae, pericardial edema, yolk sac edema and opacity, and defective development of the somite.
The total length of the larvae (mm) was measured from the mouth to the terminal portion of the tail.
Mortality was defined as the presence of coagulation, lack of heartbeat, failure of somite development, and undeveloped tail. The hatching rate was calculated considering the successful hatching of embryos in relation to the total number of embryos in each replicate. The observed malformations included pericardial edema, tail deformity, yolk sac edema, and spinal curvature.
The malformation rate was determined considering the percentage of malformed larvae in relation to the total number of larvae that hatched during the test. […] The equipment was previously calibrated using a millimeter scale.

[3] = AA oxidation kinetics induced by peroxymonosulfate (Oxone); assay type: physicochemical
Procedure: as §1

[4] = Toxicity evaluation using zebrafish (mortality, LC values, hatching, morphology; 3.12-400 mg/L, 96 h); details: zebrafish (Danio rerio), in vivo
Procedure: (§2) Preliminary tests were performed to determine the lethal concentration (LC50, mg/L). For this experiment, 24-well polystyrene plates were used, with the embryos being individually exposed to 2 mL of the test solution (n = 24 per group). […] The positive control was 4 mg L^−1 of 3,5-dichloroaniline (≥ 98%, Sigma-Aldrich). The plates were examined every 24 h to determine the mortality of the embryos and larvae, using a stereomicroscope (Model SMZ 2 LED, Optika) and Optika View v. 7.1.1.5 software. […] 1.17.04 software.

[5] = tested on: zebrafish embryos and larvae; assay: as above
Procedure: as §2

[6] = AA release kinetics, two-compartment system, and mathematical modeling; assay type: physicochemical
Procedure: The profiles of AA release from the nanoparticles were evaluated using a two-compartment system composed of a donor compartment (2 mL) and an acceptor compartment (50 mL), separated by a cellulose membrane (1000 Da exclusion pore size) under slight stirring and room temperature (25 °C). Aliquots (1 mL) were periodically collected from the acceptor compartment, with the volume being replaced with 1 mL of water to maintain a constant volume. The aliquots removed were analyzed by HPLC and the results were converted to percentages of released AA. The assays were performed in triplicate. Zero order, first order, Higuchi and Korsmeyer-Peppas mathematical models were used to elucidate the release mechanism of AA from all formulations.

AChE = details: ref Sandahl et al. [76], cited from earlier work

## O=C1O[C@H]([C@@H](O)CO)C(O)=C1O [AA, L-ascorbic acid]
[1]
  time to total degradation of AA: 120 min
[1]; first 60 min
  AA degraded: almost half
Zebrafish larvae; LC10-LC50, 96 h exposure
  distance traveled, dose dependence: dose-dependent increase in the distance traveled
  swimming speed, dose dependence: dose-dependent increases in speed
Zebrafish larvae; LC50, 96 h exposure
  distance traveled compared to the control group: significant (p < 0.05) increase in the distance traveled
Zebrafish larvae; up to the LC30 concentration
  distance traveled compared to the control group: shorter
[2]; LC50 concentration
  hatching rate: 16.6%
[2]; LC50 dose
  malformations of embryos and larvae: edema and opacity of the yolk sac, edema of the pericardium, malformation of the tail, and bent spine
[3]; first minute, initial 10 μg mL^−1 AA, peroxymonosulfate
  AA concentration after addition of the oxidizing agent: 2.5 ± 0.01 µg/mL
[3]; peroxymonosulfate oxidizing agent
  time to total degradation of AA: 7 min
[4]
  LC50 at 96 h: 331 µg/mL (≈ 1880 µM)
[5]; 400 mg/L, 96 h
  mortality: 75%
[5]; 25 and 50 mg L^−1
  malformations compared to NPs_CS_AA at the same concentrations: higher numbers of malformations
[5]; 100 and 200 mg L^−1, after 96 h
  hatching rate compared to the control group: more pronounced decreases in hatching
[5]; 96 h, probit analysis
  LC10: 53.0 µg/mL (≈ 301 µM)
  LC20: 148.3 µg/mL (≈ 842 µM)
  LC30: 217.1 µg/mL (≈ 1230 µM)
  LC40: 275.8 µg/mL (≈ 1570 µM)
[5]; after 48 h of exposure
  hatching rate compared to the control group: lower
[5]; all concentrations tested except 400 mg L^−1, 96 h
  mortality: below 30%
[6]; after 60 min, 25 °C, water
  AA released (acceptor compartment): 39 ± 0.2%
[6]; after 210 min
  AA released (acceptor compartment): 51 ± 0.9%

## CCOP(=S)(OCC)Oc1nc(Cl)c(Cl)cc1Cl [chlorpyrifos]
AChE; at 0.6 µg L^−1
  relative AChE activity compared to the control: 77.2%
AChE
  exposure concentration with significant decreases in swimming activity: 0.6 µg/L
